# In patent publication EP0989125B1, “Pesticidal furylmethyl cyclopropanecarboxylates” (Sumitomo Chemical Company, Limited, priority 1998, dated 2000):
# Columns and labels:
# rats = settings: male 7-week old rats, into the stomach in corn oil, after 7 days
# Protocol: After subjecting the rats to a twenty-hour fasting, 0.1 ml of the diluted solution per 10g weight was forcibly applied into the stomach of four male 7-week old rats. The rats were given food and water four hours after the application and thereafter regularly fed and watered, and kept in a cage. After 7 days, the mortality was examined for the rats and LD50 was calculated.
# [1] = test system: houseflies (Musca domestica); test: Biological test 9: topical application of acetone solution to houseflies; assay type: in vivo; settings: 5 µg / one housefly, after 24 hours
# Protocol: After 24 hours, the percent moribund was examined (two replicate).
# [2] = test system: brown planthopper (Nilaparvata lugens); test: Biological test 2: rice plant stalk dipped in emulsion; assay type: in vivo; settings: Nilaparvata lugens, 144 h; 500 ppm aqueous emulsion, larvae, after 6 days
# Protocol: A stalk of a rice plant was dipped for one minute in a 500 ppm aqueous emulsion obtained by diluting each emulsifiable concentrate of the present compounds prepared according to the formulation example 1. The rice plant stalk was air-dried and placed in a polyethylene cup (diameter : 5.5 cm) where filter paper (diameter : 5.5 cm) impregnated with 1 ml of water was put. Approximately 30 larvae of brown planthopper (Nilaparvata lugens) were put in the polyethylene cup. After 6 days, the mortality of the larvae was examined.
# [3] = test system: southern corn rootworm (Diabrotica undecimpunctata howardi); test: Biological test 3: treated filter paper with eggs and sprouting corn; settings: Diabrotica undecimpunctata, in Zea mays, 192 h, read-out: mortality of the hatched larvae and eggs
# [4] = test system: webbing clothes moth (Tineola bisselliella); test: Biological test 13: volatile agent hung in cup with webbing clothes moth larvae; assay type: in vivo; settings: volatile agent (100 µg on filter paper), 25 °C for 1 week
# Protocol: A wool muslin fabric (2 cm × 2 cm in size) was placed on the bottom of a polyethylene cup (bottom diameter : 10 cm, opening part diameter : 12.5 cm, height : 9.5 cm, volume : 950 cm^3 ). Ten middle instar larvae of webbing clothes moth (Tineola bisselliella) were put in the cup and each of the volatile agents prepared according to the formulation example 14 was hung from the cap in the interior of the cup. After standing at 25 °C for 1 week, the cup was opened, and the mortality and the degree of damage of the wool muslin fabric by the moths were examined (two replicate).
# [5] = test system: common mosquitoes (Culex pipiens pallens); test: Biological test 11: vapour exposure over treated aluminum plate, mosquitoes; assay type: in vivo; settings: Culex pipiens, 24 h
# Protocol: (§1) After 0.64 ml of a 0.05 (w/v) % acetone solution of the present compounds was dropped into an aluminum plate (bottom diameter : 7 cm), acetone was air-dried. Ten female common mosquitoes (Culex pipiens pallens) were left in a polyethylene cup (diameter : 9 cm; depth : 4.5 cm) and the cup was sealed with a 16-mesh nylon net to prevent direct contact of the mosquitoes with the compound. The cup was placed upside down on the aluminum plate at 25 °C for 120 minutes. The cup was then removed from the aluminum plate, and water and feed were given to the mosquitoes. After 24 hours, the mortality was examined (two replicate).
# [6] = test system: common mosquitoes (Culex pipiens pallens); test: Biological test 6: mosquito larvae in treated water; assay type: in vivo; settings: Culex pipiens, 24 h; 3.5 ppm active ingredient in water, last-instar larvae, after one day
# Protocol: 0.7 ml of aqueous emulsion, obtained by diluting emulsifiable concentrate prepared for each of the present compounds according to the formulation example 1 was added to 100 ml of ion-exchanged water (concentration of active ingredient : 3.5 ppm). Twenty last-instar larvae of common mosquitoes (Culex pipiens pallens) were left in the water. After one day, the mortality of the common mosquitoes was examined.
# [7] = test system: common mosquitoes (Culex pipiens pallens); test: Biological test 7: oil solution sprayed in glass chamber, knock-down; assay type: in vivo; settings: 0.7 ml of 0.1 % oil solution sprayed, 0.34 m^3 chamber, after 15 minutes
# Protocol: Ten female common mosquitoes (Culex pipiens pallens) were left in a glass chamber (70 cm × 70 cm × 70 cm : 0.34 m^3). 0.7 ml of 0.1 % oil solution prepared for each of the present compounds according to the formulation example 7 was sprayed with a spray gun at 0.8 atmospheric pressure. After 15 minutes, the rate of knocked-down mosquitoes was examined.
# [8] = test system: houseflies (Musca domestica); test: Biological test 10: vapour exposure over treated aluminum plate, houseflies; assay type: in vivo; settings: 0.64 ml of 0.05 (w/v) % acetone solution, no direct contact, 25 °C for 120 minutes, after 24 hours
# Protocol: as §1, with “houseflies (Musca domestica)” for “common mosquitoes (Culex pipiens pallens)”, “houseflies” for “mosquitoes”, “houseflies.” for “mosquitoes.”, “percent moribund” for “mortality”
# [9] = test system: webbing clothes moth (Tineola bisselliella); test: Biological test 14: persistence of treated filter paper in cardboard box, webbing clothes moth larvae; assay type: in vivo; design: key to degree of damage: -: no damage; +: slight damage; ++: heavy damage; +++: severe damage; settings: 36 mg on filter paper
# Protocol: A filter paper (3.2 cm × 3.2 cm in size) treated with 36 mg of each of the present compounds and two wool muslin fabrics (25 cm × 25 cm in size) were hung down at the upper part of a corrugated cardboard box (29 cm × 29 cm × 29 cm in size). After standing at 25 °C and a humidity of 60 % for 1 week, two tea-strainer balls holding 7 to 10 middle instar larvae of webbing clothes moth (Tineola bisselliella) and one piece of wool muslin cloth (2 cm × 2 cm in size) were hung down at the upper part of the box. The box was closed with a lid. After one week, the box was opened, and the percent moribund and the degree of damage of the wool muslin cloth by the moths were examined. The same tests was repeated 2 weeks, 3 weeks and 5 weeks after the treatment to examine the persistance of the present compound. The degree of damage was represented by "-" in no damage, " + " in slight damage, " ++ " in heavy damage and "+++ " in severe damage.
# [10] = test system: tobacco cutworm (Spodoptera litura); test: Biological test 1: artificial bait impregnated with emulsion; settings: Spodoptera litura, in Nicotiana tabacum, 144 h
# [11] = test system: common mosquitoes (Culex pipiens pallens); test: Biological test 8: mosquito-coil in glass chamber, knock-down; assay type: in vivo; settings: 1.0 g of 0.3 % mosquito-coil, 0.34 m^3 chamber, after 15 minutes
# Protocol: Mosquito-coil containing the present compound in an amount of 0.3 % was prepared according to the formulation example 10 for the present compounds. Ten female common mosquitoes (Culex pipiens pallens) were left in a glass chamber (70 cm × 70 cm × 70 cm : 0.34 m^3) and 1.0 g of 0.3 % mosquito-coil having both ends lit was placed in the glass chamber. After 15 minutes, the rate of knocked-down mosquitoes was examined.
# [12] = test system: webbing clothes moth (Tineola bisselliella); test: Biological test 12: topical application to webbing clothes moth larvae; assay type: in vivo; settings: 3 µg / insect, after 7 days
# Protocol: Each of the present compounds diluted with acetone to a predetermined concentration was applied to ten middle instar larvae of webbing clothes moth (Tineola bisselliella) at the central part of the back so as to give the active ingredient in a dose of 3 µg / insect. A wool muslin fabric (2 cm × 2 cm in size) was given to the webbing clothes moths as the food. After 7 days, the mortality and the degree of damage of the wool muslin fabric by the moths were examined (two replicate).
# [13] = test system: German cockroaches (Blattella germanica); test: Biological test 5: treated filter paper with sucrose bait, cockroaches low sensitive to pyrethroids; settings: Blattella germanica, 144 h
structure (smiles),measurement,setting,value
"Cc1ccc(COC(=O)[C@@H]2[C@H](/C=C(\Cl)C(F)(F)F)C2(C)C)o1 (racemic) [present compound (1), 5-methyl-2-furfuryl (1RS,cis)-3-(Z-2-chloro-3,3,3-trifluoroprop-1-enyl)-2,2-dimethylcyclopropanecarboxylate]",LD50,rats,300 mg/kg
same,percent moribund,[1],100%
same,mortality at 500 ppm,[2],≥ 90%
same,mortality at 50 ppm,[3],100%
same,mortality at 0.1 mg,"[4]; Tineola bisselliella, 168 h",100%
same,degree of damage of the wool muslin fabric,[4],no damage
same,mortality at 500 µg/mL,[5],100%
same,mortality at 3.5 ppm,[6],≥ 90%
same,rate of knocked-down mosquitoes,[7],≥ 90%
same,percent moribund,[8],100%
same,degree of damage,[9]; After 1 week,-
same,percent moribund,[9]; After 1 week,100%
same,degree of damage,[9]; After 2 weeks,-
same,percent moribund,[9]; After 2 weeks,100%
same,degree of damage,[9]; After 3 weeks,-
same,percent moribund,[9]; After 3 weeks,100%
same,degree of damage,[9]; After 5 weeks,-
same,percent moribund,[9]; After 5 weeks,100%
same,mortality at 500 µg/mL,[10],100%
same,rate of knocked-down mosquitoes,[11],100%
same,degree of damage of the wool muslin fabric,[12],no damage
same,mortality at 0.003 mg,"[12]; Tineola bisselliella, 168 h",100%
same,mortality at 500 ppm,[13],100%
